Data as given in ChEMBL document CHEMBL1201862, “PubChem BioAssay data set” (2004).
The source made the active and inactive calls.

What was measured:
Large T antigen = Large T antigen (Simian virus 40, UniProt P03070); assay type: functional, Betapolyomavirus macacae;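 also: Confirmatory-stage PubChem screen for compounds that inhibit SV40 T antigen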
[1] = target: T1, Alkaline phosphatase, tissue-nonspecific isozyme (Homo sapiens, UniProt P05186); experiment: activation of tissue-nonspecific alkaline phosphatase – biochemical, TNAP isozyme, mouse IAP uHTS hits, selectivity assay for mouse IAP activator project, dose response (AID 488880); assay type: functional
T1 sequence (P05186 whole entry): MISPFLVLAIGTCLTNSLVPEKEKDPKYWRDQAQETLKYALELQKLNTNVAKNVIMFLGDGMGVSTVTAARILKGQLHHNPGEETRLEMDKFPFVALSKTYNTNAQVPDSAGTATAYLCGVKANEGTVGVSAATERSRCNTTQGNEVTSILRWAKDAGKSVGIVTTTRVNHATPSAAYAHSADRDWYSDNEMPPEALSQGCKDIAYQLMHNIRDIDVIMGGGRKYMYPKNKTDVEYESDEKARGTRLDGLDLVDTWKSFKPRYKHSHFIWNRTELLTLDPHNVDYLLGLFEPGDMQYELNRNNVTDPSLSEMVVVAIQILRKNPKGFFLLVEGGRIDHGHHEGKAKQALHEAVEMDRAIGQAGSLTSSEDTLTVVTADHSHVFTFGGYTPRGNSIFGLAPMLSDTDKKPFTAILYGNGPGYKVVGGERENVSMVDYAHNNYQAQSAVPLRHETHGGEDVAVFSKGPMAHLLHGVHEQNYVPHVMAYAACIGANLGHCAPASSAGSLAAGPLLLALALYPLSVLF

[2] = target: Intestinal-type alkaline phosphatase (Mus musculus, UniProt P24822); experiment: mouse intestinal alkaline phosphatase activators, dose response, biochemical, luminescence, uHTS hits (AID 488783); assay type: functional
Sequence of Intestinal-type alkaline phosphatase (Mus musculus, UniProt P24822) (P24822 whole entry): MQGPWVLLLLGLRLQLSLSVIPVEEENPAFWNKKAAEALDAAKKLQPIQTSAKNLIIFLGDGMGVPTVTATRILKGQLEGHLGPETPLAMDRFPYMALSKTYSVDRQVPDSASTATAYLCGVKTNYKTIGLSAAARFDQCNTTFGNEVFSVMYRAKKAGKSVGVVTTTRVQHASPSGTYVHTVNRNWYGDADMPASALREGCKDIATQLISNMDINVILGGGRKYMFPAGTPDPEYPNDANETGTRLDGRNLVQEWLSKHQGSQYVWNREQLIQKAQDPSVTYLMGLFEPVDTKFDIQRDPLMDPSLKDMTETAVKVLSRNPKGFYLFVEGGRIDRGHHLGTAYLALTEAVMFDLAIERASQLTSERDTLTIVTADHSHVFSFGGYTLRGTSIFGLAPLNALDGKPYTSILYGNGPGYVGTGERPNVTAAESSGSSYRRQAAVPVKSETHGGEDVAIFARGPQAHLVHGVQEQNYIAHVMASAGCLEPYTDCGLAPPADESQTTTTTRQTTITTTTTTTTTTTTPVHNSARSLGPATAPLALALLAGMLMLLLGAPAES

[3] = target: Intestinal-type alkaline phosphatase (Homo sapiens, UniProt P09923); experiment: activation of human intestinal alkaline phosphatase – biochemical, dose response (AID 488873); assay type: functional
Sequence of Intestinal-type alkaline phosphatase (Homo sapiens, UniProt P09923) (P09923 whole entry): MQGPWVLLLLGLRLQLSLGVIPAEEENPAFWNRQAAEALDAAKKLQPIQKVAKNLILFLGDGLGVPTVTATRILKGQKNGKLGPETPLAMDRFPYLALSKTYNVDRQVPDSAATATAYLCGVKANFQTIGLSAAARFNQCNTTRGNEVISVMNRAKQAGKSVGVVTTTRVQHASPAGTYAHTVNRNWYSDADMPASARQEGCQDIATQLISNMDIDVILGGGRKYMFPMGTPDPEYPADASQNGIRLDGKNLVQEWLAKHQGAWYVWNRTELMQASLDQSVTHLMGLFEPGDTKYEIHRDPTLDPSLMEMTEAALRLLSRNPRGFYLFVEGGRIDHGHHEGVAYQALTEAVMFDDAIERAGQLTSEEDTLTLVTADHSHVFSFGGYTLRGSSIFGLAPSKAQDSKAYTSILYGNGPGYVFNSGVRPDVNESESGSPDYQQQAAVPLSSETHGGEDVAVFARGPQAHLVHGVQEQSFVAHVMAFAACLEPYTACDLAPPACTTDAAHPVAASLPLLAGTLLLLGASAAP

Hexokinase HKDC1 = target: T2, Hexokinase HKDC1 (Homo sapiens, UniProt Q2TB90); experiment: activation of HKDC1 glucose phosphorylation – biochemical, W721R variant, dose response (AID 504730); assay type: functional
T2 sequence (Q2TB90 whole entry): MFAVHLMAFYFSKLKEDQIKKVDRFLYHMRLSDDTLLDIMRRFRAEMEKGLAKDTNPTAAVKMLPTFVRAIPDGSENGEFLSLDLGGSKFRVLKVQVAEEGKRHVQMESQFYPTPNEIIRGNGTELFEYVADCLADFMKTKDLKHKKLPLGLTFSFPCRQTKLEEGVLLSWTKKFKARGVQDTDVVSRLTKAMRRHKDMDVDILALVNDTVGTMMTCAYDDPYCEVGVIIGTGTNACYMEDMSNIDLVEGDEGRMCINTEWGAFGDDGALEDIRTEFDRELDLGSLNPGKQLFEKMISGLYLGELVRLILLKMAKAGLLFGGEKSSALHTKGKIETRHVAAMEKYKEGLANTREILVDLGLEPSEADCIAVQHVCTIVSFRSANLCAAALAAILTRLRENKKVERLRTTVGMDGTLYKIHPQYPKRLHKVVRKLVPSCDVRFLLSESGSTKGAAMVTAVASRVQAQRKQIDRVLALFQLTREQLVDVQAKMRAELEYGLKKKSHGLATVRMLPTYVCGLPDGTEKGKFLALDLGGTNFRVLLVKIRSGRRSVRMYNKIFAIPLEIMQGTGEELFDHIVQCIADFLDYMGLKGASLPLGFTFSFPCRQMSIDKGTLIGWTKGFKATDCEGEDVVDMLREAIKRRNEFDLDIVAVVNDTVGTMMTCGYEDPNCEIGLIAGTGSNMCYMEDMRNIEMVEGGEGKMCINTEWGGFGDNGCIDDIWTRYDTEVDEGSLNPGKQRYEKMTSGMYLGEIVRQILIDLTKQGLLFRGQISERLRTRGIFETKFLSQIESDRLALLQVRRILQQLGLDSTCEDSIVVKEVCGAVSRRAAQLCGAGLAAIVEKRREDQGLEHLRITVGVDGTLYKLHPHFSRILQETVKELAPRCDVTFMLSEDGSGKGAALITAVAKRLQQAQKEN

[4] = target: T3, Polyadenylate-binding protein 1 (Homo sapiens, UniProt P11940); experiment: MLLE binding blockers, Cy5 peptide tracer – biochemical, fluorescence polarization, Cy5-PAM2 peptide, secondary, miRNA deadenylation inhibitor project, dose response (AID 602260); assay type: functional; conditions: read-out: IC50_Mean
T3 sequence (P11940 whole entry): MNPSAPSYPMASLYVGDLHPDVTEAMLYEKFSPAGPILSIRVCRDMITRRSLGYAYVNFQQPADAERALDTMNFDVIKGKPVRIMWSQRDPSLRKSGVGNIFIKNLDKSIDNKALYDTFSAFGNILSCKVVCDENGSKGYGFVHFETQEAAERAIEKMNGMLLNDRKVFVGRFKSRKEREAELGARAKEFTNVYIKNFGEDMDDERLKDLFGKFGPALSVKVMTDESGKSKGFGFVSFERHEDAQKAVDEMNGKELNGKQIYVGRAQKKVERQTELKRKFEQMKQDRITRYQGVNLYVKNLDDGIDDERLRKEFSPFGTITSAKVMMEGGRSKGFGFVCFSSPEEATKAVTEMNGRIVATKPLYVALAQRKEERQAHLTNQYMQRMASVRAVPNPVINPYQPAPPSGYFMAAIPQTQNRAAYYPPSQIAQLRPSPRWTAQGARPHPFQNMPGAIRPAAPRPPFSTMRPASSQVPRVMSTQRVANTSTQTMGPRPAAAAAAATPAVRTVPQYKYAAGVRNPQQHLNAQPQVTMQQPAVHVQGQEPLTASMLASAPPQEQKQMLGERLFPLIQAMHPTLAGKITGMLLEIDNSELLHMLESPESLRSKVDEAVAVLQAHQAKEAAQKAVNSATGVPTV

[5] = target: Eukaryotic translation initiation factor 4E (Mus musculus, UniProt P63073); experiment: blockers of eIF4G binding by eIF4E – biochemical, TR-FRET, dose response (AID 855); assay type: functional;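 also: potency for disrupting eIF4E binding to eIF4GI seen as loss of FRET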
Sequence of Eukaryotic translation initiation factor 4E (P63073 whole entry, the tested form may be a part): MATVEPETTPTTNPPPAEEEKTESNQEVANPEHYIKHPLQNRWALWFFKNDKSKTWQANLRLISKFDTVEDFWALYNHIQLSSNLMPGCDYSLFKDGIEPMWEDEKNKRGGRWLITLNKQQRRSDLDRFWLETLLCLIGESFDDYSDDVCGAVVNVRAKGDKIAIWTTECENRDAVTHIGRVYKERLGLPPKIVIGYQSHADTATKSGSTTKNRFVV

[6] = target: T3, Polyadenylate-binding protein 1; experiment: MLLE domain peptide-binding blockers, IC50 – biochemical, fluorescence polarization, FITC-PAM2 peptide, dose response (AID 602259); assay type: functional; conditions: read-out: IC50_Mean
[7] = target: DNA dC->dU-editing enzyme APOBEC-3G (Homo sapiens, UniProt Q9HC16); experiment: Dose Response confirmation of small molecule APOBEC3G DNA Deaminase Inhibitors via a fluorescence-based single-stranded DNA deaminase assay. [Related pubchem assays (depositor defined):AID493012, AID493028]; assay type: functional
Sequence of DNA dC->dU-editing enzyme APOBEC-3G (Q9HC16 whole entry): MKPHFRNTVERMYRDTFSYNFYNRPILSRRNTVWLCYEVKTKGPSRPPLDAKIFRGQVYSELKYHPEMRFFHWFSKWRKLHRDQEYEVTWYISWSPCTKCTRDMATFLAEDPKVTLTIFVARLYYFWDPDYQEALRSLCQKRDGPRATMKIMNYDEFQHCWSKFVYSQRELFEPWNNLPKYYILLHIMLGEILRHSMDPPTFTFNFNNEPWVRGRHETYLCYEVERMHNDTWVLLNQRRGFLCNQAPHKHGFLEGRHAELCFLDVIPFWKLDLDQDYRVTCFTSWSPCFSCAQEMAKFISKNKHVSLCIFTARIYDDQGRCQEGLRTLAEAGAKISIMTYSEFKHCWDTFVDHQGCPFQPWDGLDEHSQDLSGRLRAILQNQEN

Hexokinase-1 = target: T4, Hexokinase-1 (Homo sapiens, UniProt P19367); experiment: HK1 enzyme activation by HKDC1 hits – biochemical, selectivity assay for HKDC1 activator project, dose response (AID 504762); assay type: functional
T4 sequence (P19367 whole entry): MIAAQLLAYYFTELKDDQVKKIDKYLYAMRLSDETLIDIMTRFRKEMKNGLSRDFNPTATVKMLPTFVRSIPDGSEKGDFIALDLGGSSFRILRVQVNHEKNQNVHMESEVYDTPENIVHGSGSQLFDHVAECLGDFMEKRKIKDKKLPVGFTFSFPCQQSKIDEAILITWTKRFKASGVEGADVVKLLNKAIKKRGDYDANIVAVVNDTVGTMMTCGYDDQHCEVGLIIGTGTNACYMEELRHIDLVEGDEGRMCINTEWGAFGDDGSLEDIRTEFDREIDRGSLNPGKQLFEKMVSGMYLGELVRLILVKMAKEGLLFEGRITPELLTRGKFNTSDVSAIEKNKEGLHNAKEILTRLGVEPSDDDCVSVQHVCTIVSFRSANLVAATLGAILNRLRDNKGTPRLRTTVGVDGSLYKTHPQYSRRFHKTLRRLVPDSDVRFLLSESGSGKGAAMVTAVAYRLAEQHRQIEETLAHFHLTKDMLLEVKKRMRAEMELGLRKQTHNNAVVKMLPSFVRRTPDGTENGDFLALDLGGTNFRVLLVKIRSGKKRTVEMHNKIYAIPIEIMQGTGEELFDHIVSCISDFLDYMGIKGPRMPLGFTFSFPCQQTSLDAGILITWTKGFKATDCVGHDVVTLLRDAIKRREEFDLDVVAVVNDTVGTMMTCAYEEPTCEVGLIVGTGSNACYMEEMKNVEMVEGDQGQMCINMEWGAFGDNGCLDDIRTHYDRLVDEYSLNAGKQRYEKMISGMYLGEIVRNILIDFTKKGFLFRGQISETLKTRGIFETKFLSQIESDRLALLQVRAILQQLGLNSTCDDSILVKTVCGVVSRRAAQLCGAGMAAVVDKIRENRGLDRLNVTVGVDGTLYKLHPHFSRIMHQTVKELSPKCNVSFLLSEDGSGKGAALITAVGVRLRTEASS

Sequence of Large T antigen (P03070 whole entry): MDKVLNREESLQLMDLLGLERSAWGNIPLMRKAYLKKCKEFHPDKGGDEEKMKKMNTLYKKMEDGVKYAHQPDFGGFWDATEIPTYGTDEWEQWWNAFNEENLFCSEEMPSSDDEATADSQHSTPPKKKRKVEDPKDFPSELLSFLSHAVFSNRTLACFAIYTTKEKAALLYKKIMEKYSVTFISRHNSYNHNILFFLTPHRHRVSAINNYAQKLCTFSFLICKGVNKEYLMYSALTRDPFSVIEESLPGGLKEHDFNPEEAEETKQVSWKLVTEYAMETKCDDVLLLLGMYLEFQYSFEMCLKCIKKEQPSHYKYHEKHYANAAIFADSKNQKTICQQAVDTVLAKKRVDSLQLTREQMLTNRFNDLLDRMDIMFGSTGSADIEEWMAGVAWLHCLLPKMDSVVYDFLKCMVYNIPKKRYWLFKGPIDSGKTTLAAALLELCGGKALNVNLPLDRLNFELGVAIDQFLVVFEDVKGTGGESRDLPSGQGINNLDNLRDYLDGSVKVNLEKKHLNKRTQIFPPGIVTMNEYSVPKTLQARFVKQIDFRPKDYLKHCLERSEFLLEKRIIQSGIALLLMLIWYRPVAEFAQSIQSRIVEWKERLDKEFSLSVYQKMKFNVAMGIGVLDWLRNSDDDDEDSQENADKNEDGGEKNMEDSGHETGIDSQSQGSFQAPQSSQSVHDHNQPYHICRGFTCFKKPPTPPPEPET

| IC50 (Large T antigen) | EC50 [1] | EC50 [2] | EC50 [3] | SMILES | EC50 (Hexokinase HKDC1) | IC50 [4] | IC50 [5] | IC50 [6] | IC50 [7] | EC50 (Hexokinase-1) |
| --- | --- | --- | --- | --- | --- | --- | --- | --- | --- | --- |
| 15.9 µM (active) | 88.5 µM (active) | 85 µM (active) | 81.5 µM (active) | N#C/C(=C\c1coc2ccc(O)cc2c1=O)C(=O)/N=c1\[nH]c2ccccc2s1 | – | – | – | – | – | – |
| – | – | – | – | CCOC(=O)c1c(NC(=O)CSc2nnnn2-c2ccc(OC)cc2)sc(C)c1C | > 80 µM (inactive) | > 66 µM (inactive) | > 64 µM (inactive) | > 66 µM (inactive) | 54.7 µM (active) | 37.4 µM (inactive) |
